Activity calls are given as the source filed them.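 The calls were made as follows: active = lipid-stain IC50 at or below a set limit, with nuclear-stain toxicity IC50 at least five times higher; inactive = the rest.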
Legend:
DAPI = assay: triacylglycerol accumulation inhibitor potency, dose response, cell-based, panel, Nile Red and DAPI fluorescence, H9c2 (AID 651630); settings: H9c2 cells, DAPI nuclear fluorescence (cytotoxicity counter-readout), oleic acid;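 also: cells exposed to compound overnight before fixation and staining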
TAG = assay: as above; settings: H9c2 cells, Nile Red TAG fluorescence, oleic acid

SMILES | IC50 (TAG; mean of runs) | IC50 (TAG; run 1) [µM] | IC50 (TAG; run 2) [µM] | IC50 cytotoxicity (DAPI nuclear signal decrease) (DAPI; mean of runs) | IC50 cytotoxicity (DAPI nuclear signal decrease) (DAPI; run 1) [µM] | IC50 cytotoxicity (DAPI nuclear signal decrease) (DAPI; run 2) [µM]
COc1cc2c(c(OC)c1OC)-c1ccc(O)cc1C(NC(C)=O)CC2 (stereo not drawn) | > 25 µM (inactive) | > 25 | > 25 | > 25 µM (inactive) | > 25 | > 25
Cc1cc(C)n(-c2nc3c(c(=O)[nH]c(=O)n3C)n2CC(O)COc2ccc(Cl)cc2Cl)n1 (stereo not drawn) | – | 11.2 | > 25 | > 25 µM (inactive) | > 25 | > 25
COc1ccc(NS(=O)(=O)c2cc(C)ccc2NC(=O)c2cc(C)oc2C)cc1 | 8.59 µM | 9.83 | 7.35 | > 25 µM (inactive) | > 25 | > 25
COc1ccc(CNC(=O)c2ccc(N3CCC4(CC3)CC(c3ccc(Cl)cc3)=NO4)c(NC(=O)Cc3ccc(F)cc3)c2)cc1 | > 25 µM (inactive) | > 25 | > 25 | > 25 µM (inactive) | > 25 | > 25
COc1ccc(NC(=O)C2(C)Cc3c(-c4cccc(C(N)=O)c4)ccnc3O2)cc1 (stereo not drawn) | – | > 25 | 12.1 | > 25 µM (inactive) | > 25 | > 25
COc1cc(-c2nnc3n2N=C(c2ccccc2)CS3)cc(OC)c1OC | 13.4 µM | 14.9 | 12 | > 25 µM (inactive) | > 25 | > 25
CCCCNc1c(-c2ccc(-c3ccc(C(C)=O)cc3)c(OC)c2)nc2cc(C)ccn12 | – | > 25 | 22.5 | > 25 µM (inactive) | > 25 | > 25
Cc1c(C(=O)N2CC3(CC(c4cccc(NC(=O)CC(c5ccccc5)c5ccccc5)c4)=NO3)C[C@@H]2C(N)=O)cc([N+](=O)[O-])cc1[N+](=O)[O-] (stereo partly drawn) | 12.2 µM | 11.8 | 12.6 | > 25 µM (inactive) | > 25 | > 25
Cc1cc(NC(=O)CSc2nc(-c3ccco3)cc(C(F)(F)F)n2)no1 | > 25 µM (inactive) | > 25 | > 25 | > 25 µM (inactive) | > 25 | > 25
C[C@]12c3[nH]c4ccccc4c3CCN1C(=O)C(CC(=O)NCC13CC4CC(CC(C4)C1)C3)C[C@@H]2C(=O)N1CCCCC1 (stereo partly drawn) | 14.6 µM | 14.8 | 14.4 | > 25 µM (inactive) | > 25 | > 25
Cn1nnnc1Sc1ncnc2scc(-c3cccc(S(C)(=O)=O)c3)c12 | > 25 µM (inactive) | > 25 | > 25 | > 25 µM (inactive) | > 25 | > 25

More lines, in order of falling IC50 (TAG; run 1), values ahead:

IC50 (TAG; mean of runs) | IC50 (TAG; run 1) [µM] | IC50 (TAG; run 2) [µM] | SMILES | IC50 cytotoxicity (DAPI nuclear signal decrease) (DAPI; mean of runs) | IC50 cytotoxicity (DAPI nuclear signal decrease) (DAPI; run 1) [µM] | IC50 cytotoxicity (DAPI nuclear signal decrease) (DAPI; run 2) [µM]
19.7 µM (inactive) | 18.6 | 20.7 | O=C1N=C(N2CCOCC2)S/C1=C/c1ccc(-c2ccc(F)cc2)o1 | > 25 µM (inactive) | > 25 | > 25
14.1 µM | 14.8 | 13.5 | COc1cc(C(CCN2CCCC(C)C2)c2c(OC)cc(OC)c3c(-c4ccccc4)cc(=O)oc23)cc(OC)c1OC (stereo not drawn) | > 25 µM (inactive) | > 25 | > 25
13.1 µM | 10.7 | 15.4 | C=CCC[C@@H](Cc1ccc(F)cc1)C(=O)OC[C@H](Cc1c[nH]c2ccccc12)NC(=O)[C@@H](CC=C)CC(=O)N(CCO)Cc1ccccc1 | > 25 µM (inactive) | > 25 | > 25
13.5 µM | 10.7 | 16.4 | COc1cc(NC(=O)c2csc(N)n2)cc(C(=O)Nc2cccc(C(F)(F)F)c2)c1 | > 25 µM (inactive) | > 25 | > 25
6.51 µM | 6.29 | 6.72 | CCOC(=O)/C(=N\Nc1ccc(Cl)cc1)c1csc(Nc2ccccc2)n1 | 22.5 µM (inactive) | 20.6 | 24.4

From PubChem BioAssay AID651630 (Sanford-Burnham Center for Chemical Genomics, 2012)
